Test results: patent US20210000740A1, “COMPOSITIONS FOR SMALL MOLECULE THERAPEUTIC AGENT COMPOUNDS” (Delpor, Inc., priority 2018, published 2021)
Values after ≈ are worked out from the molar mass of the structure shown. Like-named read-outs stand apart in the source and are kept apart here. Values belong to the compound of their own block, whether it stands above or below them.

Key:
[1] = In vitro pH of compositions prepared with organic acids (Table 1); assay type: physicochemical; details: composition prepared with the organic acid
Protocol: Compositions were prepared with the following organic acids listed in Table 1, and pH values were measured.

[2] = cited from earlier work; for Water Solubility: intrinsic water solubility of the acid used in Example 5
[3] = cited from earlier work
[4] = cited from earlier work; remark: listed apart in the source
[5] = pH of a saturated aqueous solution of the acid; assay type: physicochemical; details: excluding the drug
Protocol: The rates of in vitro release of the risperidone salts listed in Example 5 are also related in part to the pH of a saturated aqueous solution of the acid. The pH at saturating concentrations of the acids used in Example 5 and their respective risperidone release rates (expressed as the cumulative percent total risperidone released following 15 days incubation at 37° C.) are shown in FIG. 7.

[6] = in vitro, after 28 days, PBS 37° C.

Structure (SMILES): O=C(O)C=Cc1ccc(Cl)cc1 [4-Chlorocinnamic]
In vitro pH [1]: 6.34
pKa ([3]; organic acid, Table 1): 4.41

Structure (SMILES): Cc1ccc(C=CC(=O)O)cc1 [4-Methylcinnamic]
In vitro pH [1]: 6.13

Structure (SMILES): O=C1CC2(CCCC2)CC(=O)N1CCCCN1CCN(c2ncccn2)CC1 [Buspirone]
room temperature water solubility ([4]; room temperature): about 21 mg/L

Structure (SMILES): CN(C)CCC[C@@]1(c2ccc(F)cc2)OCc2cc(C#N)ccc21 [Escitalopram]
water solubility (in words) [4]: practically insoluble in water

Structure (SMILES): O=C(O)CNC(=O)c1ccccc1 [Hippuric acid]
pH at a saturating concentration [5]: 2.6

Structure (SMILES): CCN(C)C(=O)Oc1cccc([C@H](C)N(C)C)c1 [Rivastigmine]
water solubility (in words) [4]: poorly water soluble

Structure (SMILES): CCCN(CCc1cccs1)[C@H]1CCc2c(O)cccc2C1 [Rotigotine]
water solubility (in words) [4]: practically insoluble in water

Structure (SMILES): O=C(O)CCCCCCCCC(=O)O [Sebacic, sebacic acid]
pKa ([3]; organic acid, Table 1): 4.72

Structure (SMILES): O=c1[nH]c(=O)c2[nH]c(=O)[nH]c2[nH]1 [Uric acid]
Water Solubility [2]: 60 µg/mL

Structure (SMILES): Cc1cc2c(s1)Nc1ccccc1N=C2N1CCN(C)CC1 [olanzapine, reference compound]
water solubility (in words) [4]: poorly water soluble
pKa1 ([3]; reported value, doubly protonated olanzapine): 5.0

Structure (SMILES): Cc1nccn1CC1CCc2c(c3ccccc3n2C)C1=O (stereo not drawn) [ondansetron]
water solubility (in words) [4]: limited water solubility

Structure (SMILES): COc1ccc(C(=O)O)cc1 [p-Anisic, p-anisic acid]
In vitro pH [1]: 5.05
Solubility ([2]; organic acid, Table 1): 400 µg/mL (≈ 2.63 mM)
pKa ([3]; organic acid, Table 1): 4.34

Structure (SMILES): COc1ccc(C=CC(=O)O)cc1 [p-Methoxycinnamic, p-methoxycinnamic acid]
In vitro pH [1]: 5.37
Solubility ([2]; organic acid, Table 1): 712 µg/mL (≈ 4 mM)
pKa ([3]; organic acid, Table 1): 4.04

Structure (SMILES): Cc1nc2n(c(=O)c1CCN1CCC(c3noc4cc(F)ccc34)CC1)CCCC2 [risperidone]
insolubility in water as a neutral free base ([4]; 20-25° C.): > 10000 volumes of water per volume of drug

Structure (SMILES): CCCc1nc(C)c2c(=O)[nH]c(-c3cc(S(=O)(=O)N4CCN(CC)CC4)ccc3OCC)nn12 [vardenafil]
water solubility (in words) [4]: limited water solubility

Continued, in another order:

In vitro pH [1]: 2.42
Structure (SMILES): O=C(O)C(O)c1ccccc1 (racemic) [rac-Mandelic]
Solubility ([2]; organic acid, Table 1): 158700 µg/mL (≈ 1040 mM)
pKa ([3]; organic acid, Table 1): 3.85

pH at a saturating concentration [5]: 3.0
Structure (SMILES): O=C(O)CCc1ccc(O)cc1 [Hydroxyphenylpropionic acid, 3-(4-hydroxyphenyl)propionic acid]
Water Solubility [2]: 2760 µg/mL

In vitro pH [1]: 3.68
Structure (SMILES): O=C(O)c1cccnc1 [Nicotinic, nicotinic acid]

In vitro pH [1]: 4.21
Structure (SMILES): Nc1ccc(C(=O)O)cc1 [PABA, p-aminobenzoic acid]
pKa ([3]; organic acid, Table 1): 4.65

In vitro pH [1]: 3.95
Structure (SMILES): O=C(O)/C=C/c1cccc(O)c1 [m-Coumaric, m-coumaric acid]
Solubility [2]: 1040 µg/mL (≈ 6.34 mM)
pKa [3]: 4.01

In vitro pH [1]: 4.49
Structure (SMILES): COc1cccc(C=CC(=O)O)c1 [m-Methoxycinnamic, m-methoxycinnamic acid]
Solubility ([2]; organic acid, Table 1): 4460 µg/mL (≈ 25 mM)
pKa ([3]; organic acid, Table 1): 4.47

In vitro pH [1]: 4.36
Structure (SMILES): O=C(O)/C=C/c1ccc(O)cc1 [p-Coumaric, p-coumaric acid]
Solubility ([2]; organic acid, Table 1): 1000 to 10000 µg/mL

percent of the drug released [6]: approximately 10%
Structure (SMILES): Clc1ccc2nsnc2c1NC1=NCCN1 [tizanidine free base, tizanidine]

In vitro pH [1]: 4.35
Structure (SMILES): O=C(O)/C=C/c1ccccc1 [trans-Cinnamic, trans-cinnamic acid]
